Experimental data from patent US20120178147A1, “MICROBIAL CULTURES AND METHODS FOR ANAEROBIC BIOREMEDIATION” (priority 2009, published 2012).

System: sediment microcosms
Assay: Effect of TCC, TCS and BES on TCE dechlorination in sediment microcosms and cultures derived from them
Format: cell-based
Experimental: In this study, microcosm is defined as: anaerobic airtight serum bottles with sediment samples, anaerobic medium, electron donor, and a chlorinated compound used as an electron acceptor. Four microcosms were set up in the anaerobic glove chamber with H2 concentration of 3% (Coy laboratory products Inc. Grass Lake, Mich.). Ten gram of homogeneously mixed sediment from either core A or core D were transferred independently into a 160 ml sterile serum bottle, and 90 ml anaerobic media with vitamin solution and 2 mM lactate were added. One hundred μL of 20 mg/L TCC stock solution in methanol and 100 μL of 20 mg/L TCS stock solution were added by pipette (Eppendorf, Calif.) to two of the four microcosms. Microcosms were capped with thick black butyl rubber stoppers and aluminum crimps. 4.5 μL pure TCE was injected with airtight syringe (Hamilton Company, Reno, Nev.) into each serum bottle. On day 130, in order to inhibit methane production in the sediment microcosms, 25 mM BES was added in to sediment-A microcosm and sediment-D microcosm with TCC and TCS with airtight syringe (Hamilton Company, Reno, Nev.). Microcosms were stored in the dark and incubated at 30° C.
Production of Sediment-Free Cultures. To establish sediment-free cultures from core A and core D sediment microcosms, the microcosms were shaken vigorously, and the solids were allowed to settle down. Then, using 1-inch, 21-gauge sterile needles, […] liquid (10 ml) were transferred into 89 ml sterile medium with the following contents: anaerobic medium, ATCC vitamin mix, and vitamin B12, in 160-ml serum bottles. Then, 1 ml each of 500-mM lactate stock solution and 35-μL TCE stock solution (1 mol/L in methanol) were added to form a 100 ml culture in 160-ml serum bottle. Three sediment cultures were derived from each sediment microcosm, and 12 sediment-free cultures were produced (FIG. 1). For organizational purposes, we refer to the sediment-free cultures generated from sediment-A microcosms as SCA and the sediment free cultures generated from sediment-D microcosms as DehaloR̂2, in the figures herein, the DehaloR̂2 are referred to as “SCD”. Thus, the term “SCD” and DehaloR̂2 are used interchangeably herein as the composition “SCD” was renamed “DehaloR̂2” during the course of investigation. The sediment-free cultures were kept in the dark and incubated at 30° C. After all the chlorinated electron acceptors were consumed, the cultures were re-spiked with TCE and electron donors.
BES (2-bromoethanesulfonate) is an efficient inhibitor for the metabolism of methanogens in methanogenetic cultures because it is a structural analog and competitive inhibitor of coenzyme M, which is only found in methanogens (Dimarco et al., 1990; Sparling and Daniels, 1987). Different concentrations of BES have been used by researchers. […] In this study, in order to determine if the cause for incomplete reductive dechlorination was competition for electron donor between methanogens and TCE dechlorinating microorganisms in the microcosms, I added 25 mM BES, 70 μmol of TCE, and 5 mM lactate into two sediment microcosms, sediment-A and sediment-D with TCC and TCS. In two other sediment microcosms, I added 70 μmol of TCE and 5 mM lactate without BES.

## O=S(=O)(O)CCBr [BES, 2-bromoethanesulfonic acid]
25 mM BES
  effect on TCE reductive dechlorination: exerted some inhibition on TCE reductive dechlorination
25 mM BES, two sediment microcosms
  methane production: no methane was produced
Cultures from microcosms amended with TCC, TCS, BES
  effect on TCE dechlorination rates in sediment-free cultures: slow down TCE dechlorination rates
